Data from article PMC10865350, “Investigating Polypharmacology through Targeting Known Human Neutrophil Elastase Inhibitors to Proteinase 3” (Journal of Chemical Information and Modeling, 2024).
Read-outs that look alike come from different tables or passages of the source.

Legend:
[1] = system: human neutrophil elastase (HNE); details: Bayer HealthCare AG value; cited from earlier work
[2] = system: human neutrophil elastase (HNE); test: HNE inhibition IC50 reported by Bayer HealthCare AG (literature values); format: biochemical; details: 298.15 K; calculated from Bayer HealthCare AG IC50 values, Nussbaum et al. refs 9-11
Source text: To ensure we had the best models to represent the selected ligands and their interactions with the protein, we explored four different force field combinations for protein and ligands (Table 2) and compared the predicted values to published experimental data for HNE. […] The predicted free energies obtained with MSλD are provided in Table S3 together with the free energies derived from published experimental data.

Proteinase 3 (PR3) [3] = test: Enzymatic activity assay, PR3 (FRET peptide Abz-VADnVADYQ-EDDnp); format: biochemical, human; details: selectivity: PR3 IC50 with respect to HNE IC50
Description: (§1) II.1 Experimental details
(§2) Chemicals. All chemicals and reagents were of analytical grade. Enzymes, PR3 and HNE, were purchased from Athens Research and Technology.
(§3) India) using published procedures.42 The substrate of HNE (MeOSuc-AAPV-AMC) was supplied by Santa Cruz Biotechnology.
(§4) Activity assay. The enzymatic assays for both PR3 and HNE were conducted according to the method published in (Budnjo et al., 2014) with minor modifications. Briefly, 0.5 nM of enzyme […]
(§5) same buffer containing the inhibitors at various concentrations for 30 min at RT. For PR3, the […]
(§6) 320, emission filter 420) at a final concentration of 5 μM while the HNE reaction was started by […]
(§7) at a final concentration of 5 μM. The fluorescent signal was read every 30 second for 30 min at 30 °C using a fluorescent plate reader (Tecan Spark). The enzymatic activity was measured from the initial linear portion of the slope (fluorescent signal/min) of the time-course curve of reaction progress. The activity data were produced in triplicates. Data were fitted using nonlinear regression analysis (GraphPad Prism v.9) to determine the IC50 values.

Proteinase 3 (PR3) [4] = target: T1, Proteinase 3 (PR3) (Homo sapiens, UniProt P24158); test: as above; format: biochemical; details: best enantiomer for compounds 5-8
T1 construct: purchased Athens Research and Technology
T1 sequence (P24158 28-256): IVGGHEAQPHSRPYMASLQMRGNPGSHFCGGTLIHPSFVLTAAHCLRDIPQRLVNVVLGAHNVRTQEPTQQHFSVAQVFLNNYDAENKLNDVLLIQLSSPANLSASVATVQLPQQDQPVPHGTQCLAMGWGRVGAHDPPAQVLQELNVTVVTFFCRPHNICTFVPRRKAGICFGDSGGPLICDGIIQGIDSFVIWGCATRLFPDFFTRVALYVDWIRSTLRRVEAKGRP
Description: as §1, §2, §3, §4, §5, §6, §7

HNE = target: T2, HNE (Homo sapiens, UniProt P08246); test: Enzymatic activity assay, HNE (fluorogenic substrate MeOSuc-AAPV-AMC); format: biochemical; details: best enantiomer for compounds 5-8
T2 construct: purchased Athens Research and Technology
T2 sequence (P08246 30-267): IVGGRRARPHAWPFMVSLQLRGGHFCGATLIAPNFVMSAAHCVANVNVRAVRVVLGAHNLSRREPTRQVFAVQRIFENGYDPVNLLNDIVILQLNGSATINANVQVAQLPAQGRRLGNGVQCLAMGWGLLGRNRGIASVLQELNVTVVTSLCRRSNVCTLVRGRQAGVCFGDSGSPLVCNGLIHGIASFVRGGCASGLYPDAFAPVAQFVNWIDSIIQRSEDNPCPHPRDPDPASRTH
Description: as §1, §2, §3, §4, §5, §6, §7

[5] = 0.5 nM enzyme, 5 μM FRET peptide, triplicates, read-out: IC50 PR3
[6] = 0.5 nM enzyme, 5 μM substrate, triplicates, read-out: IC50 HNE
[7] = read-out: pIC50 HNE (converted)

In the case of CC1=C(C#N)[C@@H](c2ccc(C#N)cc2)n2ncnc2N1c1cccc(C(F)(F)F)c1 [Compound 2], the IC50 [1] is given as 15 nM and the “ΔGexpt HNE (ΔG = RTln(IC50))” value [2] is given as -10.6 kcal/mol.
For CC1=C(C#N)[C@@H](c2ccc(C#N)cc2)n2nc(N)nc2N1c1cccc(C(F)(F)F)c1 [Compound 3], the IC50 [1] is given as 2.5 nM and the “ΔGexpt HNE (ΔG = RTln(IC50))” value [2] is given as -11.7 kcal/mol.
For COc1nc2n(n1)[C@H](c1ccc(C#N)cc1)C(C#N)=C(C)N2c1cccc(C(F)(F)F)c1 [Compound 4], the IC50 [1] is given as 69 nM and the “ΔGexpt HNE (ΔG = RTln(IC50))” value [2] is given as -9.7 kcal/mol.
For CNc1nc2n(n1)[C@H](c1ccc(C#N)cc1)C(C#N)=C(C)N2c1cccc(C(F)(F)F)c1 [Compound 5], the IC50 [1] is listed as 0.59 nM, the “IC50 ratio (PR3/HNE)” value (Proteinase 3 (PR3) [3]) is listed as 146 and the IC50 (Proteinase 3 (PR3) [4]; [5]) is listed as 190 ± 10 nM. For the same compound, the “ΔGexpt HNE (ΔG = RTln(IC50))” value [2] was -12.5 kcal/mol, the IC50 (HNE; [6]) was 1.3 ± 0.2 nM and the IC50 (HNE; [7]) was 1.26 nM.
For CC1=C(C#N)[C@@H](c2ccc(C#N)cc2)n2nc(NC(=O)C3CC3)nc2N1c1cccc(C(F)(F)F)c1 [Compound 6], the IC50 [1] is listed as 0.35 nM, the “IC50 ratio (PR3/HNE)” value (Proteinase 3 (PR3) [3]) is listed as 13 and the IC50 (Proteinase 3 (PR3) [4]; [5]) is listed as 7.7 ± 0.6 nM. For the same compound, the “ΔGexpt HNE (ΔG = RTln(IC50))” value [2] was -12.8 kcal/mol, the IC50 (HNE; [6]) was 0.6 nM and the IC50 (HNE; [7]) was 0.794 nM.
In the case of COC(=O)Nc1nc2n(n1)[C@H](c1ccc(C#N)cc1)C(C#N)=C(C)N2c1cccc(C(F)(F)F)c1 [Compound 7], the IC50 [1] is listed as 0.17 nM, the “IC50 ratio (PR3/HNE)” value (Proteinase 3 (PR3) [3]) is listed as 19 and the IC50 (Proteinase 3 (PR3) [4]; read-out: pIC50 PR3 (converted)) is listed as 20 nM. The “ΔGexpt HNE (ΔG = RTln(IC50))” value [2] was -13.3 kcal/mol, the IC50 (HNE; [6]) was 1.1 ± 0.1 nM and the IC50 (HNE; [7]) was 1.26 nM.
In the case of CNC(=O)Nc1nc2n(n1)[C@H](c1ccc(C#N)cc1)C(C#N)=C(C)N2c1cccc(C(F)(F)F)c1 [Compound 8], the IC50 [1] is given as 0.3 nM, the “IC50 ratio (PR3/HNE)” value (Proteinase 3 (PR3) [3]) is given as 74 and the IC50 (Proteinase 3 (PR3) [4]; [5]) is given as 58.9 ± 6 nM. The “ΔGexpt HNE (ΔG = RTln(IC50))” value [2] was -12.9 kcal/mol, the IC50 (HNE; [6]) was 0.8 ± 0.1 nM and the IC50 (HNE; [7]) was 0.794 nM.
For CC1=C(C#N)[C@@H](c2ccc(C#N)cc2)n2nc(NS(C)(=O)=O)nc2N1c1cccc(C(F)(F)F)c1 [Compound 9], the IC50 [1] is given as 12 nM and the “ΔGexpt HNE (ΔG = RTln(IC50))” value [2] is given as -10.8 kcal/mol.
In the case of CNS(=O)(=O)Nc1nc2n(n1)[C@H](c1ccc(C#N)cc1)C(C#N)=C(C)N2c1cccc(C(F)(F)F)c1 [Compound 10], the IC50 [1] is listed as 50 nM and the “ΔGexpt HNE (ΔG = RTln(IC50))” value [2] is listed as -9.9 kcal/mol.
For CC1=C(C#N)[C@@H](c2ccc(C#N)cc2)n2nc(NC(=O)C3CCCCC3)nc2N1c1cccc(C(F)(F)F)c1 [Compound 11], the IC50 [1] is given as < 0.3 nM.
